Tests used:
Assay in all cases: relative viability (nuclei count vs DMSO), 5 days (fraction); higher = more cells survive
Sorafenib + Decitabine = compound: CNC(=O)c1cc(Oc2ccc(NC(=O)Nc3ccc(Cl)c(C(F)(F)F)c3)cc2)ccn1 [Sorafenib] + Nc1ncn([C@H]2C[C@H](O)[C@@H](CO)O2)c(=O)n1 [Decitabine] (partner 2 µM)
In short: (§1)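 Values are medians from duplicate plates. Each reflects relative viability, defined as the nuclei count of treated wells over that of vehicle wells. Lung cancer cell lines in 1536-well plates were pin-tool dosed one day after seeding with one drug alone or with a fixed anchor-drug dose plus five library-drug doses (not always all listed) in √10 steps, then fixed, stained and imaged at 4× after 5 days.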

Sorafenib + Phenformin = compound: CNC(=O)c1cc(Oc2ccc(NC(=O)Nc3ccc(Cl)c(C(F)(F)F)c3)cc2)ccn1 [Sorafenib] + N=C(N)NC(=N)NCCc1ccccc1 [Phenformin] (partner 250 µM)
In short: as §1

Sorafenib + Olaparib = compound: CNC(=O)c1cc(Oc2ccc(NC(=O)Nc3ccc(Cl)c(C(F)(F)F)c3)cc2)ccn1 [Sorafenib] + O=C(c1cc(Cc2n[nH]c(=O)c3ccccc23)ccc1F)N1CCN(C(=O)C2CC2)CC1 [Olaparib] (partner 8 µM)
In short: as §1

Sorafenib + Foretinib = compound: CNC(=O)c1cc(Oc2ccc(NC(=O)Nc3ccc(Cl)c(C(F)(F)F)c3)cc2)ccn1 [Sorafenib] + COc1cc2c(Oc3ccc(NC(=O)C4(C(=O)Nc5ccc(F)cc5)CC4)cc3F)ccnc2cc1OCCCN1CCOCC1 [Foretinib] (partner 0.25 µM)
In short: as §1

Sorafenib + Pictilisib = compound: CNC(=O)c1cc(Oc2ccc(NC(=O)Nc3ccc(Cl)c(C(F)(F)F)c3)cc2)ccn1 [Sorafenib] + CS(=O)(=O)N1CCN(Cc2cc3nc(-c4cccc5[nH]ncc45)nc(N4CCOCC4)c3s2)CC1 [Pictilisib] (partner 1 µM)
In short: as §1

Sorafenib + Lapatinib = compound: CNC(=O)c1cc(Oc2ccc(NC(=O)Nc3ccc(Cl)c(C(F)(F)F)c3)cc2)ccn1 [Sorafenib] + CS(=O)(=O)CCNCc1ccc(-c2ccc3ncnc(Nc4ccc(OCc5cccc(F)c5)c(Cl)c4)c3c2)o1 [Lapatinib] (partner 2 µM)
In short: as §1

Sorafenib + Linsitinib = compound: CNC(=O)c1cc(Oc2ccc(NC(=O)Nc3ccc(Cl)c(C(F)(F)F)c3)cc2)ccn1 [Sorafenib] + C[C@]1(O)C[C@@H](c2nc(-c3ccc4ccc(-c5ccccc5)nc4c3)c3c(N)nccn32)C1 [Linsitinib] (partner 1 µM)
In short: as §1

Sorafenib + Alpelisib = compound: CNC(=O)c1cc(Oc2ccc(NC(=O)Nc3ccc(Cl)c(C(F)(F)F)c3)cc2)ccn1 [Sorafenib] + Cc1nc(NC(=O)N2CCC[C@H]2C(N)=O)sc1-c1ccnc(C(C)(C)C(F)(F)F)c1 [Alpelisib] (partner 2 µM)
In short: as §1

Sorafenib = compound: CNC(=O)c1cc(Oc2ccc(NC(=O)Nc3ccc(Cl)c(C(F)(F)F)c3)cc2)ccn1 [Sorafenib]
In short: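 Lung cancer cell lines were seeded into 1536-well plates, kept overnight at 37 °C and pinned with five library-drug doses (not always all listed) spaced by √10. After 5 days, nuclei were Hoechst-stained, imaged at 4× and counted with MetaXpress. Viability is treated-well nuclei over vehicle-well nuclei, taken as a median across plates. Plates needed control CV below 25% and at least one doubling.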

Sorafenib + Navitoclax = compound: CNC(=O)c1cc(Oc2ccc(NC(=O)Nc3ccc(Cl)c(C(F)(F)F)c3)cc2)ccn1 [Sorafenib] + CC1(C)CCC(c2ccc(Cl)cc2)=C(CN2CCN(c3ccc(C(=O)NS(=O)(=O)c4ccc(N[C@H](CCN5CCOCC5)CSc5ccccc5)c(S(=O)(=O)C(F)(F)F)c4)cc3)CC2)C1 [Navitoclax] (partner 0.5 µM)
In short: as §1

Sorafenib + Bortezomib = compound: CNC(=O)c1cc(Oc2ccc(NC(=O)Nc3ccc(Cl)c(C(F)(F)F)c3)cc2)ccn1 [Sorafenib] + CC(C)C[C@H](NC(=O)[C@H](Cc1ccccc1)NC(=O)c1cnccn1)B(O)O [Bortezomib] (partner 0.002 µM)
In short: as §1

Sorafenib + Crizotinib = compound: CNC(=O)c1cc(Oc2ccc(NC(=O)Nc3ccc(Cl)c(C(F)(F)F)c3)cc2)ccn1 [Sorafenib] + C[C@@H](Oc1cc(-c2cnn(C3CCNCC3)c2)cnc1N)c1c(Cl)ccc(F)c1Cl [Crizotinib] (partner 1 µM)
In short: as §1

## A549
Sorafenib + Decitabine; first compound 0.08 µM
  relative viability: 0.233
Sorafenib + Decitabine; first compound 0.253 µM
  relative viability: 0.34
Sorafenib + Decitabine; first compound 2.53 µM
  relative viability: 0.218
Sorafenib + Decitabine; first compound 8 µM
  relative viability: 0.245
Sorafenib + Phenformin; first compound 0.08 µM
  relative viability: 0.213
Sorafenib + Phenformin; first compound 0.253 µM
  relative viability: 0.158
Sorafenib + Phenformin; first compound 2.53 µM
  relative viability: 0.193
Sorafenib + Phenformin; first compound 8 µM
  relative viability: 0.0523
Sorafenib + Olaparib; first compound 0.08 µM
  relative viability: 0.496
Sorafenib + Olaparib; first compound 0.253 µM
  relative viability: 0.289
Sorafenib + Olaparib; first compound 2.53 µM
  relative viability: 0.302
Sorafenib + Olaparib; first compound 8 µM
  relative viability: 0.208
Sorafenib + Foretinib; first compound 0.08 µM
  relative viability: 0.904
Sorafenib + Foretinib; first compound 0.253 µM
  relative viability: 0.893
Sorafenib + Foretinib; first compound 2.53 µM
  relative viability: 0.896
Sorafenib + Foretinib; first compound 8 µM
  relative viability: 0.584
Sorafenib + Pictilisib; first compound 0.08 µM
  relative viability: 0.631
Sorafenib + Pictilisib; first compound 0.253 µM
  relative viability: 0.5
Sorafenib + Pictilisib; first compound 2.53 µM
  relative viability: 0.412
Sorafenib + Pictilisib; first compound 8 µM
  relative viability: 0.116
Sorafenib + Lapatinib; first compound 0.08 µM
  relative viability: 1.02
Sorafenib + Lapatinib; first compound 2.53 µM
  relative viability: 0.962
Sorafenib + Lapatinib; first compound 8 µM
  relative viability: 0.208
Sorafenib + Linsitinib; first compound 0.253 µM
  relative viability: 0.622
Sorafenib + Linsitinib; first compound 2.53 µM
  relative viability: 0.512
Sorafenib + Linsitinib; first compound 8 µM
  relative viability: 0.341
Sorafenib + Alpelisib; first compound 0.08 µM
  relative viability: 0.803
Sorafenib + Alpelisib; first compound 0.253 µM
  relative viability: 0.664
Sorafenib + Alpelisib; first compound 2.53 µM
  relative viability: 0.735
Sorafenib + Alpelisib; first compound 8 µM
  relative viability: 0.453
Sorafenib; 0.08 µM
  relative viability: 1.07
Sorafenib; 0.253 µM
  relative viability: 0.921
Sorafenib; 8 µM
  relative viability: 0.523

## Calu-6
Sorafenib + Olaparib; first compound 0.08 µM
  relative viability: 0.538
Sorafenib + Olaparib; first compound 2.53 µM
  relative viability: 0.531
Sorafenib + Olaparib; first compound 8 µM
  relative viability: 0.306
Sorafenib + Foretinib; first compound 0.08 µM
  relative viability: 0.973
Sorafenib + Foretinib; first compound 0.253 µM
  relative viability: 0.852
Sorafenib + Foretinib; first compound 2.53 µM
  relative viability: 0.816
Sorafenib + Foretinib; first compound 8 µM
  relative viability: 0.622
Sorafenib + Navitoclax; first compound 0.08 µM
  relative viability: 0.887
Sorafenib + Navitoclax; first compound 0.253 µM
  relative viability: 0.794
Sorafenib + Navitoclax; first compound 2.53 µM
  relative viability: 0.724
Sorafenib + Navitoclax; first compound 8 µM
  relative viability: 0.457
Sorafenib + Pictilisib; first compound 0.08 µM
  relative viability: 0.964
Sorafenib + Pictilisib; first compound 0.253 µM
  relative viability: 0.805
Sorafenib + Pictilisib; first compound 2.53 µM
  relative viability: 0.864
Sorafenib + Pictilisib; first compound 8 µM
  relative viability: 0.351
Sorafenib + Lapatinib; first compound 0.08 µM
  relative viability: 1.04
Sorafenib + Lapatinib; first compound 0.253 µM
  relative viability: 0.984
Sorafenib + Lapatinib; first compound 2.53 µM
  relative viability: 0.99
Sorafenib + Lapatinib; first compound 8 µM
  relative viability: 0.378
Sorafenib + Bortezomib; first compound 0.08 µM
  relative viability: 0.948
Sorafenib + Bortezomib; first compound 0.253 µM
  relative viability: 0.936
Sorafenib + Bortezomib; first compound 2.53 µM
  relative viability: 0.934
Sorafenib + Bortezomib; first compound 8 µM
  relative viability: 0.61
Sorafenib + Linsitinib; first compound 0.08 µM
  relative viability: 0.885
Sorafenib + Linsitinib; first compound 2.53 µM
  relative viability: 0.904
Sorafenib + Linsitinib; first compound 8 µM
  relative viability: 0.778
Sorafenib + Alpelisib; first compound 0.08 µM
  relative viability: 0.923
Sorafenib + Alpelisib; first compound 0.253 µM
  relative viability: 0.954
Sorafenib + Alpelisib; first compound 2.53 µM
  relative viability: 0.948
Sorafenib + Alpelisib; first compound 8 µM
  relative viability: 0.487
Sorafenib + Crizotinib; first compound 0.08 µM
  relative viability: 0.928
Sorafenib + Crizotinib; first compound 0.253 µM
  relative viability: 0.735
Sorafenib + Crizotinib; first compound 2.53 µM
  relative viability: 0.679
Sorafenib + Crizotinib; first compound 8 µM
  relative viability: 0.366
Sorafenib; 0.08 µM
  relative viability: 1.06
Sorafenib; 0.253 µM
  relative viability: 0.959
Sorafenib; 2.53 µM
  relative viability: 0.925
Sorafenib; 8 µM
  relative viability: 0.711

## EBC-1
Sorafenib + Olaparib; first compound 0.08 µM
  relative viability: 0.717
Sorafenib + Olaparib; first compound 0.253 µM
  relative viability: 0.543
Sorafenib + Olaparib; first compound 2.53 µM
  relative viability: 0.594
Sorafenib + Olaparib; first compound 8 µM
  relative viability: 0.557
Sorafenib + Foretinib; first compound 0.08 µM
  relative viability: 0.092
Sorafenib + Foretinib; first compound 0.253 µM
  relative viability: 0.1
Sorafenib + Foretinib; first compound 2.53 µM
  relative viability: 0.11
Sorafenib + Foretinib; first compound 8 µM
  relative viability: 0.114
Sorafenib + Navitoclax; first compound 0.08 µM
  relative viability: 0.568
Sorafenib + Navitoclax; first compound 2.53 µM
  relative viability: 0.42
Sorafenib + Navitoclax; first compound 8 µM
  relative viability: 0.451
Sorafenib + Pictilisib; first compound 0.08 µM
  relative viability: 0.371
Sorafenib + Pictilisib; first compound 0.253 µM
  relative viability: 0.419
Sorafenib + Pictilisib; first compound 2.53 µM
  relative viability: 0.355
Sorafenib + Pictilisib; first compound 8 µM
  relative viability: 0.287
Sorafenib + Lapatinib; first compound 0.08 µM
  relative viability: 0.203
Sorafenib + Lapatinib; first compound 0.253 µM
  relative viability: 0.219
Sorafenib + Lapatinib; first compound 2.53 µM
  relative viability: 0.226
Sorafenib + Lapatinib; first compound 8 µM
  relative viability: 0.208
Sorafenib + Bortezomib; first compound 0.08 µM
  relative viability: 0.575
Sorafenib + Bortezomib; first compound 0.253 µM
  relative viability: 0.481
Sorafenib + Bortezomib; first compound 2.53 µM
  relative viability: 0.521
Sorafenib + Bortezomib; first compound 8 µM
  relative viability: 0.405
Sorafenib + Linsitinib; first compound 0.253 µM
  relative viability: 0.732
Sorafenib + Linsitinib; first compound 2.53 µM
  relative viability: 0.931
Sorafenib + Linsitinib; first compound 8 µM
  relative viability: 0.625
Sorafenib + Alpelisib; first compound 0.08 µM
  relative viability: 0.875
Sorafenib + Alpelisib; first compound 0.253 µM
  relative viability: 0.769
Sorafenib + Alpelisib; first compound 2.53 µM
  relative viability: 0.89
Sorafenib + Alpelisib; first compound 8 µM
  relative viability: 0.623
Sorafenib + Crizotinib; first compound 0.08 µM
  relative viability: 0.189
Sorafenib + Crizotinib; first compound 0.253 µM
  relative viability: 0.176
Sorafenib + Crizotinib; first compound 2.53 µM
  relative viability: 0.202
Sorafenib + Crizotinib; first compound 8 µM
  relative viability: 0.203
Sorafenib; 0.08 µM
  relative viability: 1.05
Sorafenib; 0.253 µM
  relative viability: 0.904
Sorafenib; 2.53 µM
  relative viability: 0.929
Sorafenib; 8 µM
  relative viability: 0.812
